The text below walks through data of patent US20250099493A1, “PHOSPHONATES AS INHIBITORS OF ENPP1 AND CDNP” (STINGRAY THERAPEUTICS, INC., priority 2020, published 2025).

For one experiment, the target named is Recombinant CndP (CdnP) (Mycobacterium tuberculosis (strain ATCC 25618 / H37Rv), UniProt P71615). Nature of the experiment: CndP Assay with BPNPP substrate. The experiment is classed as biochemical, M. tuberculosis. The note with it: pH 8.0, 37° C. 45 minutes, read-out: Inhibition of CdnP IC50.
The target in experiment [1] is Recombinant Human ENPP-1 Protein (Homo sapiens (Human), UniProt P22413). Put plainly: ENPP1 Inhibition Assay. The experiment is classed as biochemical. As for the experimental part:
Assay Buffer: 1 mM CaCl2), 0.2 mM ZnCl2, 50 mM Tris, pH 9.0. Substrate: 8 mM Thymidine 5′-monophosphate p-nitrophenol ester sodium salt (Sigma Cat #T4510). Enzyme: […] Recombinant Human ENPP-1 Protein (R&D Cat #6136-EN-010) in DMSO in 96-well clear assay plates.
An eight point serial dilution of drugs was prepared in 10× in assay buffer with the final assay concentrations starting at 10 μM, 3 μM, 1 μM, 0.3 μM and 0 μM. A dilution of DMSO was included as a control. The assay plate was set up as follows with each well in duplicate: 81 μL assay buffer+10 μL ENPP1 inhibitor or DMSO+5 μL Substrate+4 μL Enzyme. Both the enzyme and substrate was added to opposite sides of the well to ensure that there was no interaction until all wells had both components. The plate was then centrifuged gently for 10 seconds, followed by an incubation at 37° C. for 45 minutes. The reaction was quantified by measuring absorbance at 405 nm using an Envision plate reader.
IC50 values are determined using GraphPad Prism 5 software. The data were entered as an X-Y plot into the software as percent inhibition for each concentration of the drug. The concentration values of the drug were log transformed and the nonlinear regression was carried out using the “sigmoidal dose-response (variable slope)” option within the GraphPad software to model the data and calculate IC50 values. The IC50 values reported are the concentration of drug at which 50% inhibition was reached.

For the next experiment, the target named is Recombinant CdnP Protein (Mycobacterium tuberculosis (strain ATCC 25618 / H37Rv), UniProt P71615). Put plainly: CdnP HPLC Assay with C-DI-AMP Substrate. The experiment is classed as biochemical, M. tuberculosis. The settings on record: HPLC AMP peak area, read-out: Inhibition percentage of CdnP; for inhibition at 100 µM: 100 μM compound.
The mark [2] stands for this setting: substrate thymidine 5′-monophosphate p-nitrophenol ester, pH 9.0, 37° C. 45 minutes, read-out: Inhibition of ENPP1 IC50.

Read-outs that look alike come from different tables or passages of the source. Where only a bound is given, the exact number is not on record here.

Sequence of Recombinant Human ENPP-1 Protein (P22413 99-925): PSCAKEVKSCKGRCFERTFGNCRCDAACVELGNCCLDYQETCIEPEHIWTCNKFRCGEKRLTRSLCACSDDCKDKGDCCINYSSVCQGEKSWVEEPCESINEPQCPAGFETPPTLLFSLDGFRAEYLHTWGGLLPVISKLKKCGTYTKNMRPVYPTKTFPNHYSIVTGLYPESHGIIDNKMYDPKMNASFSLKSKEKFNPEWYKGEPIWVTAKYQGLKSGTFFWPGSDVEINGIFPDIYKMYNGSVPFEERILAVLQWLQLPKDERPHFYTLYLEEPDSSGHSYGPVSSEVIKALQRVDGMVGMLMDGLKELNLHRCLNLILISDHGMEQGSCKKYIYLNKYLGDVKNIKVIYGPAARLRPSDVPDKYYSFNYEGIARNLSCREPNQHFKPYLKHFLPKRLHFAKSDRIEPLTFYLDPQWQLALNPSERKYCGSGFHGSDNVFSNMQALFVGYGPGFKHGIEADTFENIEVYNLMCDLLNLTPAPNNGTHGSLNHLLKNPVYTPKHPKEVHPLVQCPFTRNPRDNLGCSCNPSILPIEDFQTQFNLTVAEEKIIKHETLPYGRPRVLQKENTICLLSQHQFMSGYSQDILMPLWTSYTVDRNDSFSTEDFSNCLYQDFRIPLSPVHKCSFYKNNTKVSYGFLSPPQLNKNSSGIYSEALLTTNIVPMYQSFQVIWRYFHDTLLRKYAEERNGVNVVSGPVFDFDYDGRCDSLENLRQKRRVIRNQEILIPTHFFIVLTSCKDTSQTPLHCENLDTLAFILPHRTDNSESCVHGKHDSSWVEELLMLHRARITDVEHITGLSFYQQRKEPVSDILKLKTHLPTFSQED
Sequence of Recombinant CdnP Protein (P71615 whole entry, looked up): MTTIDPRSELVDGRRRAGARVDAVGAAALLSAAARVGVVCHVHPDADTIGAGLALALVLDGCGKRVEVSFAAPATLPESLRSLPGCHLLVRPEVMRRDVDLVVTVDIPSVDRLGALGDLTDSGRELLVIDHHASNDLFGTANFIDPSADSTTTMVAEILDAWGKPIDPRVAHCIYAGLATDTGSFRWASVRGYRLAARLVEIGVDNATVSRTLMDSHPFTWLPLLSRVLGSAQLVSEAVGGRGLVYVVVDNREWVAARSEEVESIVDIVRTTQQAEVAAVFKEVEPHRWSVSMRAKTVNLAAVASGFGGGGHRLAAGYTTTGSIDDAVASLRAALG
Sequence of Recombinant CndP (CdnP) (P71615 whole entry, looked up): as above

`COc1cc2ncnc(N3CCC[C@@H](CP(=O)(O)O)CC3)c2cc1OC` [Compound I-1, (R)-((1-(6,7-dimethoxyquinazolin-4-yl)azepan-4-yl)methyl)phosphonic acid]: the values for the concentration for half-maximal inhibition (IC50) (at Recombinant CndP (CdnP); in experiment [1]) were 0.1 to 1 µM and 0.01 to 0.1 µM, respectively. Besides, the inhibition at 1 µM on Recombinant CdnP Protein (1 μM compound) was < 20%. For the same molecule, at Recombinant CdnP Protein (10 μM compound), the inhibition at 10 µM was > 50%. For the same molecule, on Recombinant CdnP Protein, the inhibition at 100 µM was > 50%.

Consider `COc1cc2ncnc(N3CCC[C@H](CP(=O)(O)O)CC3)c2cc1OC` [Compound I-2, (S)-((1-(6,7-dimethoxyquinazolin-4-yl)azepan-4-yl)methyl)phosphonic acid], for which the IC50 was 0.1 to 1 µM on Recombinant CndP (CdnP) and > 0.1 µM in experiment [1] (setting [2]).

For the molecule `COc1cc2ncnc(N3CCCC(CP(=O)(O)O)CC3)c2cc1OC` (stereo not drawn) [Compound I-3, ((1-(6,7-dimethoxyquinazolin-4-yl)azepan-4-yl)methyl)phosphonic acid], the IC50 was in the range of 0.1 to 1 µM on Recombinant CndP (CdnP) and 0.01 to 0.1 µM in experiment [1].

Turning to `COc1cc2ncnc(N3CCCC(CCP(=O)(O)O)CC3)c2cc1OC` (stereo not drawn) [Compound I-4, (2-(1-(6,7-dimethoxyquinazolin-4-yl)azepan-4-yl)ethyl)phosphonic acid], the IC50 was < 0.1 µM on Recombinant CndP (CdnP) and < 0.01 µM in experiment [1] (setting [2]).

As to `COc1cc2ncnc(N3CCCC(CCCP(=O)(O)O)CC3)c2cc1OC` (stereo not drawn) [Compound I-5, (3-(1-(6,7-dimethoxyquinazolin-4-yl)azepan-4-yl)propyl)phosphonic acid], the values for the IC50 (on Recombinant CndP (CdnP); in experiment [1]) were 0.1 to 1 µM and 0.01 to 0.1 µM, respectively.

For `COc1cc2ncnc(N3CCCN(CP(=O)(O)O)CC3)c2cc1OC` [Compound I-6, ((4-(6,7-dimethoxyquinazolin-4-yl)-1,4-diazepan-1-yl)methyl)phosphonic acid], the half-inhibitory concentration (IC50) is > 1 µM on Recombinant CndP (CdnP) and > 0.1 µM in experiment [1] (setting [2]).

In the case of `COc1cc2ncc(C#N)c(N3CCCC(CP(=O)(O)O)CC3)c2cc1OC` (stereo not drawn) [Compound I-7, ((1-(3-cyano-6,7-dimethoxyquinolin-4-yl)azepan-4-yl)methyl)phosphonic acid], the figures for the 50% inhibitory concentration (IC50) (on Recombinant CndP (CdnP); in experiment [1] (setting [2])) were < 0.1 µM and < 0.01 µM, respectively.

Take `COc1cccc2c(N3CCCC(CP(=O)(O)O)CC3)ccnc12` (stereo not drawn) [Compound I-8, ((1-(8-methoxyquinolin-4-yl)azepan-4-yl)methyl)phosphonic acid]: the results for the IC50 (at Recombinant CndP (CdnP); in experiment [1] (setting [2])) were 0.1 to 1 µM and > 0.1 µM, respectively.

With `COc1cccc2c(N3CCCC(CP(=O)(O)O)CC3)ncnc12` (stereo not drawn) [Compound I-9, ((1-(8-methoxyquinazolin-4-yl)azepan-4-yl)methyl)phosphonic acid], the IC50 on Recombinant CndP (CdnP) was 0.1 to 1 µM; in experiment [1] (setting [2]) it was < 0.01 µM.

For the molecule `COc1cc2ncnc(N3CCCC(CP(=O)(OCOC(=O)C(C)C)OCOC(=O)C(C)C)CC3)c2cc1OC` (stereo not drawn) [Compound I-10, ((((1-(6,7-dimethoxyquinazolin-4-yl)azepan-4-yl)methyl)phosphoryl)bis(oxy))bis(methylene) bis(2-methylpropanoate)], the figures for the 50% inhibitory concentration (IC50) (at Recombinant CndP (CdnP); in experiment [1] (setting [2])) were > 1 µM and > 0.1 µM, respectively.

For the molecule `COc1cc2ncnc(-c3ccc(CP(=O)(O)O)nc3)c2cc1OC` [II-1, ((5-(6,7-dimethoxyquinazolin-4-yl)pyridin-2-yl)methyl)phosphonic acid], the inhibition at 100 µM on Recombinant CdnP Protein was > 50%.
